Patent publication US7560466B2, “Methods of treating or preventing autoimmune diseases with 2,4-pyrimidinediamine compounds” (Rigel Pharmaceuticals, Inc., priority 2003, dated 2009)
Read-outs that look alike come from different tables or passages of the source.

Molecular target: T1, Syk kinase (Homo sapiens, UniProt P43405)
T1 construct: purchased Upstate, Lake Placid N.Y
Assay: Syk kinase biochemical fluorescence polarization assay
Conditions: isolated Syk kinase, read-out: fp_syk, 11pt
Description: Many of the 2,4-pyrimidinediamine compounds were tested for the ability to inhibit Syk kinase catalyzed phosphorylation of a peptide substrate in a biochemical fluorescenced polarization assay with isolated Syk kinase. In this experiment, Compounds were diluted to 1% DMSO in kinase buffer (20 mM HEPES, pH 7.4, 5 mM MgCl2, 2 mM MnCl2, 1 mM DTT, 0.1 mg/mL acetylated Bovine Gamma Globulin). Compound in 1% DMSO (0.2% DMSO final) was mixed with ATP/substrate solution at room temperature. Syk kinase (Upstate, Lake Placid N.Y.) was added to a final reaction volume of 20 uL, and the reaction was incubated for 30 minutes at room temperature. […] EDTA (10 mM final)/anti-phosphotyrosine antibody (1× final)/fluorescent phosphopeptide tracer (0.5× final) was added in FP Dilution Buffer to stop the reaction for a total volume of 40 uL according to manufacturer's instructions (PanVera Corporation) The plate was incubated for 30 minutes in the dark at room temperature. Plates were read on a Polarion fluorescence polarization plate reader (Tecan). Data were converted to amount of phosphopeptide present using a calibration curve generated by competition with the phosphopeptide competitor provided in the Tyrosine Kinase Assay Kit, Green (PanVera Corporation).
In Tabe 1, all reported values are IC50s (in μM).

Structure (SMILES) | IC50 (11pt) [µM] | other results
Cc1nc2cc(Nc3ncc(F)c(Nc4ccc5c(c4)NC(=O)C(C)(C)O5)n3)ccc2n1CCO [Compound 901] | < 10 | 
O=C1COc2ccc(Nc3ncc(F)c(Nc4ccc5c(c4)NC(=O)CO5)n3)cc2N1 [Compound 1083] |  | IC50 (11-point): < 10 µM
CCCn1ncc2ccc(Nc3ncc(F)c(Nc4ccc5c(c4)NC(=O)C(C)(C)O5)n3)cc21 [Compound 708] | < 10 | 
Cc1nc2cc(Nc3ncc(F)c(Nc4ccc5c(n4)NC(=O)C(C)(C)O5)n3)ccc2n1CCO [Compound 903, N4-(2,2-Dimethyl-3-oxo-4H-5-pyrid[1,4]oxazin-6-yl)-5-fluoro-N2-[1-(2-hydroxyethyl)-2-methylbenzimidazol-5-yl)-2,4-pyrimidinediamine] | < 10 | 
COc1cc(Nc2ncc(F)c(Nc3ccc4c(n3)NCCO4)n2)cc(OC)c1OC [Compound 1145, N4-(3,4-Dihydro-2H,4H-5-pyrid[1,4]oxazin-6-yl)-5-fluoro-N2-(3,4,5-trimethoxyphenyl)-2,4-pyrimidinediamine] |  | IC50 (4 uM ATP, 11pt): < 10 µM
CC1(C)Sc2ccc(Nc3nc(Nc4ccc5cn[nH]c5c4)ncc3F)cc2NC1=O [Compound 295] | < 10 | 
CC1(C)Oc2ccc(Nc3nc(Nc4ccc5[nH]c(C(F)(F)F)nc5c4)ncc3F)nc2NC1=O [Compound 846, N4-(2,2-Dimethyl-3-oxo-4H-5-pyrid[1,4]oxazin-6-yl)-5-fluoro-N2-(2-trifluoromethyl-1H-benzimidazol-5-yl)-2,4-pyrimidinediamine] | < 10 | 
COC(=O)CCNC(=O)c1ccc(Nc2ncc(F)c(Nc3ccc4c(n3)NC(=O)C(C)(C)O4)n2)cc1 [Compound 1312, N4-(2,2-Dimethyl-3-oxo-4H-5-pyrid[1,4]oxazin-6-yl)-5-fluoro-N2-[4-[N-(2-methoxycarbonylethyl)aminocarbonyl]phenyl]-2,4-pyrimidinediamine] |  | IC50 (4 uM ATP, 11pt): < 10 µM
CC1(C)Oc2ccc(Nc3nc(Nc4cccc(-c5cnco5)c4)ncc3F)cc2NC1=O [Compound 1016] |  | IC50 (11-point): < 10 µM
CCn1ncc2cc(Nc3ncc(F)c(Nc4ccc5c(c4)NC(=O)C(C)(C)O5)n3)ccc21 [Compound 696] | < 10 | 
Cc1cc(C)cc(Nc2ncc(F)c(Nc3ccc4c(c3)NC(=O)C(C)(C)S4(=O)=O)n2)c1 [Compound 268] | < 10 | 
Cc1nc2ccc(Nc3ncc(F)c(Nc4ccc5c(c4)NC(=O)C(C)(C)O5)n3)cc2[nH]1 [Compound 810, N4-(2,2-Dimethyl-3-oxo-4H-benz[1,4]oxazin-6-yl)-5-fluoro-N2-(2-methyl-3H-benzimidazol-5-yl)-2,4-pyrimidinediamine] | < 10 | 
Cc1nc2ccc(Nc3ncc(F)c(Nc4ccc5c(n4)NC(=O)C(C)(C)O5)n3)cc2[nH]1 [Compound 845, N4-(2,2-Dimethyl-3-oxo-4H-5-pyrid[1,4]oxazin-6-yl)-5-fluoro-N2-(2-methyl-3H-benzimidazol-5-yl)-2,4-pyrimidinediamine] | < 10 | 
CC1C(=O)Nc2cc(Nc3nc(Nc4ccc5cn[nH]c5c4)ncc3F)ccc2S1(=O)=O (stereo not drawn) [Compound 265] | < 10 | 
CC1(C)Oc2ccc(Nc3nc(Nc4cc(CO)cc(CO)c4)ncc3F)cc2NC1=O [Compound 344, N2-[3,5-Bis(hydoxymethylene)phenyl]-N4-(2,2-dimethyl-3-oxo-4H-benz[1,4]oxazin-6-yl)-5-fluoro-2,4-pyrimidinediamine] | < 10 | 
COc1cc(Nc2ncc(F)c(Nc3ccc4c(c3)NC(=O)C(C)(C)S4(=O)=O)n2)cc(OC)c1 [Compound 267] | < 10 | 
CCCCn1ncc2cc(Nc3ncc(F)c(Nc4ccc5c(c4)NC(=O)C(C)(C)O5)n3)ccc21 [Compound 712] | < 10 | 
CCCn1ncc2cc(Nc3ncc(F)c(Nc4ccc5c(c4)NC(=O)C(C)(C)O5)n3)ccc21 [Compound 704] | < 10 | 
O=C1Nc2cc(Nc3nc(Nc4ccc(-c5cnco5)cc4)ncc3F)ccc2OC1CCO (stereo not drawn) [Compound 227] | < 10 | 
Cn1nc(N)c2cc(Nc3ncc(F)c(Nc4ccc5c(c4)NC(=O)C(C)(C)O5)n3)ccc21 [Compound 806, N2-(3-A mino-1-methylindazol-5-yl)-N4-(2,2-dimethyl-3-oxo-4H-benz[1,4]oxazin-6-yl)-5-fluoro-2,4-pyrimidinediamine] | < 10 | 
COc1c(C)cc(Nc2ncc(F)c(Nc3ccc4c(n3)NC(=O)C(C)(C)O4)n2)cc1C [Compound 997, N2-(3,5-Dimethyl-4-methoxyphenyl)-N4-(2,2-dimethyl-3-oxo-4H-5-pyrid[1,4]oxazin-6-yl)-5-fluoro-2,4-pyrimidinediamine] | < 10 | 
Cc1nc2cc(Nc3ncc(F)c(Nc4ccc5c(c4)NC(=O)[C@H](C)O5)n3)ccc2n1CCO [Compound 902] | < 10 | 

Second part, led by results:

IC50 (11pt) [µM] | Structure (SMILES) | other results
< 10 | Cc1nc2cc(Nc3ncc(F)c(Nc4ccc5c(c4)NC(=O)[C@H](C)O5)n3)ccc2n1C [Compound 897] | 
< 10 | Cc1nn(C)c2cc(Nc3ncc(F)c(Nc4ccc5c(c4)NC(=O)C(C)(C)O5)n3)ccc12 [Compound 754] | 
< 10 | Cc1nc2ccc(Nc3ncc(F)c(Nc4ccc5c(c4)NC(=O)[C@H](C)O5)n3)cc2[nH]1 [Compound 811, (S)-5-Fluoro-N2-(2-methyl-3H-benzimidazol-5-yl)-N4-(2-methyl-3-oxo-2H,4H-benz[1,4]oxazin-6-yl)-2,4-pyrimidinediamine] | 
< 10 | CC1(C)Oc2ccc(Nc3nc(Nc4ccc5c(cnn5CC5CC5)c4)ncc3F)cc2NC1=O [Compound 736] | 
> 10 | CN(c1ccc2c(c1)OCCO2)c1nc(Cl)ncc1F [Compound 390] | 
< 10 | CC1(C)Oc2ccc(Nc3nc(Nc4ccc5[nH]c(CN6CCOCC6)nc5c4)ncc3F)nc2NC1=O [Compound 962, N4-(2,2-Dimethyl-3-oxo-4H-5-pyrido[1,4]oxazin-6-yl)-5-fluoro-N2-[2-(4-morpholinomethyl)-1H-benzimidazol-5-yl]-2,4-pyrimidinediamine] | 
< 10 | COc1cc(Nc2ncc(F)c(Nc3ccc4c(c3)NC(C)(C)CO4)n2)cc(OC)c1 [Compound 203, N4-(3,4-Dihydro-3,3-dimethyl-2H,4H-benz[1,4]oxazin-6-yl)-N2-(3,5-dimethoxyphenyl)-5-fluoro-2,4-pyrimidinediamine] | 
< 10 | CC1(C)Oc2ccc(Nc3nc(Nc4ccc5nc(C(F)(F)F)[nH]c5c4)ncc3F)cc2NC1=O [Compound 802, N4-(2,2-Dimethyl-3-oxo-4H-benz[1,4]oxazin-6-yl)-5-fluoro-N2-(2-trifluoromethyl-1H-benzimidazol-5-yl)-2,4-pyrimidinediamine] | 
< 10 | CCOc1c(C)cc(Nc2ncc(F)c(Nc3ccc4c(c3)NC(=O)C(C)(C)O4)n2)cc1Cl [Compound 1008] | 
< 10 | COc1cc(Nc2ncc(F)c(Nc3ccc4c(c3)NC(=O)C(C)S4(=O)=O)n2)cc(OC)c1OC (stereo not drawn) [Compound 266] | 
< 10 | CC1(C)Oc2ccc(Nc3nc(Nc4ccc5[nH]c(N6CCOCC6)nc5c4)ncc3F)nc2NC1=O [Compound 977, N4-(2,2-Dimethyl-3-oxo-4H-5-pyrido[1,4]oxazin-6-yl)-5-fluoro-N2-[2-(4-morpholino)-1H-benzimidazol-5-yl]-2,4-pyrimidinediamine] | 
< 10 | CC1(C)Oc2ccc(Nc3nc(Nc4ccc5cnn(CC6CC6)c5c4)ncc3F)cc2NC1=O [Compound 740] | 
< 10 | CC1C(=O)Nc2cc(Nc3nc(Nc4ccc5[nH]c(C(F)(F)F)nc5c4)ncc3F)ccc2S1(=O)=O (stereo not drawn) [Compound 910, 5-Fluoro-N4-(2-methyl-1,1,3-trioxo-2H,4H-benzo[1,4]thiazin-6-yl)-N2-(2-trifluoromethyl-1H-benzimidazol-5-yl)-2,4-pyrimidinediamine] | 
< 10 | CC1(C)Oc2ccc(Nc3nc(Nc4ccc5[nH]c(CN6CCOCC6)nc5c4)ncc3F)cc2NC1=O [Compound 961, N4-(2,2-Dimethyl-3-oxo-4H-benz[1,4]oxazin-6-yl)-5-fluoro-N2-[2-(4-morpholinomethyl)-1H-benzimidazol-5-yl]-2,4-pyrimidinediamine] | 
< 10 | COc1cc(Nc2ncc(F)c(Nc3ccc4c(c3)NC(=O)C(C)S4(=O)=O)n2)cc(OC)c1 (stereo not drawn) [Compound 263, N2-(3,5-Dimethoxyphenyl)-N4-(dioxide-2-methyl-1,1,3-trioxo-4H-benzo[1,4]thiazin-6-yl)-5-fluoro-2,4-pyrimidinediamine] | 
< 10 | Cc1cc(C)cc(Nc2ncc(F)c(Nc3ccc4c(c3)NC(=O)C(C)S4(=O)=O)n2)c1 (stereo not drawn) [Compound 264] | 
< 10 | CC1(C)Oc2ccc(Nc3nc(Nc4ccc5[nH]c(N6CCOCC6)nc5c4)ncc3F)cc2NC1=O [Compound 976, N4-(2,2-Dimethyl-3-oxo-4H-benz[1,4]oxazin-6-yl)-5-fluoro-N2-[2-(4-morpholino)-1H-benzimidazol-5-yl]-2,4-pyrimidinediamine] | 
< 10 | CCCCn1ncc2ccc(Nc3ncc(F)c(Nc4ccc5c(c4)NC(=O)C(C)(C)O5)n3)cc21 [Compound 716] | 
< 10 | CC(=O)NCCCn1ncc2cc(Nc3ncc(F)c(Nc4ccc5c(n4)NC(=O)C(C)(C)O5)n3)ccc21 [Compound 822, N2-[1-[3-(N-Acetylamino)propyl]indazol-5-yl]-N4-(2,2-dimethyl-3-oxo-4H-5-pyrid[1,4]oxazin-6-yl)-5-fluoro-2,4-pyrimidinediamine] | 
< 10 | CC1(C)Oc2ccc(Nc3nc(Nc4ccc5c(cnn5C5CCCCC5)c4)ncc3F)cc2NC1=O [Compound 744] | 
